From US4521430A, “1,5-Benzothiazepin-4-one, their pharmaceutical compositoins, and methods of use” (Tanabe Seiyaku Co., Ltd., priority 1983, dated 1985)
Counter-ions that a name gives are not always drawn.

Tests used:
[1] = system: cerebral and/or coronary vasodilating activity; details: Japanese Patent Publication Nos. 43784/1971 and 8544/1972; cited from earlier work
[2] = biological target: calmodulin (Homo sapiens, UniProt P0DP23); assay: Anti-calmodulin activity: activation of phosphodiesterase activity by calmodulin (Experiment 5); format: biochemical; details: pH 7.5, 30° C.; Table 4; read-out: ID50 (concentration for 50% inhibition of the activation of phosphodiesterase activity by calmodulin)
[3] = system: platelet aggregation; assay: Platelet aggregation-inhibiting activity, collagen, platelet-rich plasma (Experiment 4); format: cell-based, Sprague-Dawley rats; design: key: -: the test compound showed less than 10% inhibition of platelet aggregation; +: the test compound showed not less than 10% inhibition of platelet aggregation but said percentage inhibition was lower than that of acetylsalicylic acid (100 μg/ml); ++: the test compound showed the platelet aggregation-inhibiting activity at least as strong as that of acetylsalicylic acid (100 μg/ml); details: final concentration 100 μg/ml, rat PRP, 37° C., Table 3
Excerpt: Blood was collected from the abdominal aorta of male Sprague-Dawley rats which were anesthetized with ether. Nine volumes of said blood were mixed with one volume of an aqueous 3.8% (w/v) trisodium citrate solution, and the mixture was centrifuged to give platelet-rich plasma ("PRP") as the supernatant solution. The bottom layer was further centrifuged to give platelet-poor plasma ("PPP") as the supernatant solution. Platelet counts were adjusted to 0.8-1×10^6 /mm^3 for PRP by dilution with PPP. After a mixture of 200 μl of the diluted PRP and 25 μl of a test compound solution (final concentration: 100 μg/ml) was stirred for 2 minutes at 37° C., 25 μl of a collagen solution (Biochim. Biophys. Acta, 186, page 254(1969)) were added thereto. The degree of platelet aggregation was estimated by Born's method (Nature, 194, page 927(1962)) and percentage inhibition of platelet aggregation was calculated therefrom.

[4] = system: coronary blood flow of the isolated heart; assay: Coronary vasodilating activity: Langendorff's method, coronary blood flow of isolated heart (Experiment 3); design: species or system guinea pig; details: for Coronary vasodilating activity (class): isolated guinea pig heart, Langendorff, Table 2
Method: (§1) For example, when the cerebral vasodilating activity is evaluated by examining vertebral artery blood flow in anesthetized dogs to which a test compound is intraarterially administered, said activity of (+)-cis-2-(4-methoxyphenyl)-3-(2-chloro-4-nitrobenzoyloxy)-5-[2-(dimethylamino)ethyl]-2,3-dihydro-1,5-benzothiazepin-4-(5H)-one fumarate is 4.5 times stronger than that of papaverine. On the other hand, the coronary vasodilating activity of (+)-cis-2-(4-methoxyphenyl)-3-(2-chloro-4-nitrobenzoyloxy)-5-[2-(dimethylamino)ethyl]-2,3-dihydro-1,5-benzothiazepin-4(5H)-one fumarate when examined by the Langendorff method using isolated hearts of guinea pigs is 10 times stronger than that of papaverine.
Langendorff's method was used for testing the effect on the coronary blood flow of the isolated heart of guinea pig (about 280 g). The isolated heart was perfused with Locke-Ringer solution containing 2% of defibrinated rabbit blood, which had been saturated with a mixed gas of 95% O2 and 5% CO2 (30° C.). Perfusion pressure was kept at 40 cm H2 O. A solution of a test compound in an aqueous 5% glucose solution was injected into the perfusing solution at a volume of 0.1 ml per heart. The outflow of the perfusate was measured by means of a drop counter.
The coronary vasodilating activity of the test compound was expressed as "±" if the increase in coronary blood flow is less than 0.5 ml/minute at a dose of 100 μg/heart; "+" if the increase is not less than 0.5 ml/minute at a dose of 100 μg/heart; "++" if the increase is not less than 0.5 ml/minute at a dose of 30 μg/heart; and "+++" if the increase is not less than 0.5 ml/minute at a dose of not more than 10 μg/heart.

[5] = system: vertebral artery blood flow; assay: Cerebral vasodilating activity: vertebral artery blood flow in anesthetized dogs, injection into vertebral artery (Experiment 1); format: in vivo; details: for Cerebral vasodilating activity (potency ratio to papaverin, class): anesthetized male dogs, injected into vertebral artery, Table 1
Method: as §1
(§2) (Cerebral vasodilating activity)
Male dogs weighing 10 to 20 kg were anesthetized with sodium pentobarbital (30 mg/kg, intravenous injection). The blood flow in vertebral artery was measured continuously by means of an electromagnetic flowmeter under artificial respiration. A test compound dissolved in an aqueous 5% glucose solution was injected into vertebral artery. The cerebral vasodilating activity of the test compound was estimated in terms of "the potency ratio of said compound to papaverin" which was calculated from the dose-responsecurves thereof.

[6] = system: atrioventricular conduction; details: known calcium-antagonistic vasodilator; cited from earlier work
[7] = system: cerebral ischemia; assay: Protective effect on cerebral ischemia: recovery of electrocorticogram activity after occlusion of common carotid and vertebral artery; format: in vivo; details: rats, 0.1 mg/kg/minute intravenously, within one hour after reestablishment of cerebral blood flow
[8] = system: vertebral blood flow; assay: Cerebral vasodilating activity: total increase in vertebral blood flow in anesthetized dogs, intravenous (Experiment 2); format: in vivo; details: anesthetized male dogs, 0.2 mg/kg intravenously; increase at peak response x half duration time
Method: as §2
Male dogs weighing 11 to 16 kg (one group: 3 dogs) were anesthetized with sodium pentobarbital (30 mg/kg, intravenous injection). The vertebral blood flow was measured by means of an electromagnetic flowmeter under artificial respiration. A test compound dissolved in an aqueous 5% glucose solution was injected intravenously at a dose of 0.2 mg/kg. The cerebral vasodilating activity of the test compound was estimated in terms of "total increase in vertebral blood flow" which was calculated by multiplying "increase (Δml/minute) in blood flow at peak response" by "half duration time (T 1/2:minute)".

[9] = system: atrioventricular conduction; assay: Atrioventricular conduction in anesthetized guinea pigs, intravenous; format: in vivo; details: 3 mg/kg intravenously
[10] = Acute toxicity, oral; details: mouse, in vivo, mice, orally
Excerpt: The compound (I) is further characteristic in that said compound is low in toxicity. For example, the acute toxicity (LD50) of (+)-cis-2-(4-methoxyphenyl)-3-(2-chloro-4-nitrobenzoyloxy)-5-[2-(dimethylamino)ethyl]-2,3-dihydro-1,5-benzothiazepin-4(5H)-one fumarate, when administered to mice orally, is more than 2 g/kg.

## COc1ccc(C2Sc3ccccc3N(CCN(C)C)C(=O)C2OCc2ccccc2)cc1 (stereo not shown) [2-(4-methoxyphenyl)-3-benzyloxy-5-[2-(dimethylamino)ethyl]-2,3-dihydro-1,5-benzothiazepin-4(5H)-one]
[1]
  coronary vasodilating activity (known): have a coronary vasodilating activity

## CCN(C)CCN1C(=O)[C@H](OC(=O)c2ccc([N+](=O)[O-])cc2Cl)[C@H](c2ccc(OC)cc2)Sc2ccccc21 [(+)-cis-2-(4-methoxyphenyl)-3-(2-chloro-4-nitrobenzoyloxy)-5-[2-(N-methyl-N-ethylamino)ethyl]-2,3-dihydro-1,5-benzothiazepin-4(5H)-one oxalate]
[2]
  IC50: 2.1 µM

## COc1ccc([C@@H]2Sc3ccccc3N(CCN(C)C)C(=O)[C@@H]2OC(=O)c2ccc([N+](=O)[O-])cc2)cc1.O=C(O)/C=C/C(=O)O [(+)-cis-2-(4-methoxyphenyl)-3-(4-nitrobenzoyloxy)-5-[2-(dimethylamino)ethyl]-2,3-dihydro-1,5-benzothiazepin-4(5H)-one fumarate]
[3]
  Platelet aggregation-inhibiting activity (class): ++
[4]
  Coronary vasodilating activity (class): +++ (the increase is not less than 0.5 ml/minute at a dose of not more than 10 μg/heart)
[2]
  IC50: 4.5 µM
[5]
  Cerebral vasodilating activity (potency ratio to papaverin, class): +++ (the potency ratio is not less than 3)

## CCN(CC)CCN1C(=O)[C@H](OC(=O)c2ccc([N+](=O)[O-])cc2Cl)[C@H](c2ccc(OC)cc2)Sc2ccccc21.Cl [(+)-cis-2-(4-methoxyphenyl)-3-(2-chloro-4-nitrobenzoyloxy)-5-[2-(diethylamino)ethyl]-2,3-dihydro-1,5-benzothiazepin-4(5H)-one hydrochloride]
[2]
  IC50: 2.1 µM
[5]
  Cerebral vasodilating activity (potency ratio to papaverin, class): +++ (the potency ratio is not less than 3)

## COc1ccc([C@@H]2Sc3ccccc3N(CCN(C)C)C(=O)[C@@H]2OC(=O)c2ccccc2[N+](=O)[O-])cc1.Cl (racemic) [(±)-cis-2-(4-methoxyphenyl)-3-(2-nitrobenzoyloxy)-5-[2-(dimethylamino)ethyl]-2,3-dihydro-1,5-benzothiazepin-4(5H)-one hydrochloride]
[3]
  Platelet aggregation-inhibiting activity (class): ++

## COc1ccc(CCN(C)CCCC(C#N)(c2ccc(OC)c(OC)c2)C(C)C)cc1OC (stereo not shown) [verapamil, 5-[(3,4-dimethoxyphenethyl)methylamino]-2-(3,4-dimethoxyphenyl)-2-isopropylvaleronitrile]
[6]
  effect on atrioventricular conduction (known): inhibits atrioventricular conduction to cause the prolongation of atrioventricular conduction time

## COc1ccc(C2Sc3ccccc3N(CCN(C)C)C(=O)C2OC(=O)c2ccccc2)cc1 (stereo not shown) [2-(4-methoxyphenyl)-3-benzoyloxy-5-[2-(dimethylamino)ethyl]-2,3-dihydro-1,5-benzothiazepin-4(5H)-one]
[1]
  coronary vasodilating activity (known): have a coronary vasodilating activity

## COc1ccc([C@@H]2Sc3ccccc3N(CCN(C)C)C(=O)[C@@H]2OC(=O)c2ccc(Cl)c([N+](=O)[O-])c2)cc1.O=C(O)C(=O)O [(+)-cis-2-(4-methoxyphenyl)-3-(4-chloro-3-nitrobenzoyloxy)-5-[2-(dimethylamino)ethyl]-2,3-dihydro-1,5-benzothiazepin-4(5H)-one oxalate]
[2]
  IC50: 1.4 µM
[5]
  Cerebral vasodilating activity (potency ratio to papaverin, class): +++ (the potency ratio is not less than 3)

## COc1ccc([C@@H]2Sc3ccccc3N(CCN(C)C)C(=O)[C@@H]2OC(=O)c2ccc([N+](=O)[O-])cc2)cc1.O=C(O)/C=C\C(=O)O (racemic) [(±)-cis-2-(4-methoxyphenyl)-3-(4-nitrobenzoyloxy)-5-[2-(dimethylamino)ethyl]-2,3-dihydro-1,5-benzothiazepin-4(5H)-one maleate]
[4]
  Coronary vasodilating activity (class): +++ (the increase is not less than 0.5 ml/minute at a dose of not more than 10 μg/heart)

## COc1ccc([C@@H]2Sc3ccccc3N(CCN(C)C)C(=O)[C@@H]2OC(=O)c2ccc(Cl)cc2[N+](=O)[O-])cc1.Cl [(+)-cis-2-(4-methoxyphenyl)-3-(4-chloro-2-nitrobenzoyloxy)-5-[2-(dimethylamino)ethyl]-2,3-dihydro-1,5-benzothiazepin-4(5H)-one hydrochloride]
[4]
  Coronary vasodilating activity (class): +++ (the increase is not less than 0.5 ml/minute at a dose of not more than 10 μg/heart)
[5]
  Cerebral vasodilating activity (potency ratio to papaverin, class): +++ (the potency ratio is not less than 3)

## COc1ccc([C@@H]2Sc3ccccc3N(CCN(C)C)C(=O)[C@@H]2OC(=O)c2ccc([N+](=O)[O-])cc2Cl)cc1.O=C(O)/C=C/C(=O)O [(+)-cis-2-(4-methoxyphenyl)-3-(2-chloro-4-nitrobenzoyloxy)-5-[2-(dimethylamino)ethyl]-2,3-dihydro-1,5-benzothiazepin-4(5H)-one fumarate]
[3]
  Platelet aggregation-inhibiting activity (class): ++
[4]; Langendorff method, isolated hearts of guinea pigs
  coronary vasodilating activity, times stronger than that of papaverine: 10 times
[4]
  Coronary vasodilating activity (class): +++ (the increase is not less than 0.5 ml/minute at a dose of not more than 10 μg/heart)
[7]
  recovery of electrocorticogram (ECoG) activity: about 50%
[8]
  total increase in vertebral blood flow: 91 mL
[9]
  disturbance of atrioventricular conduction: did not induce disturbance of atrioventricular conduction
[2]
  IC50: 2.5 µM
[5]
  Cerebral vasodilating activity (potency ratio to papaverin, class): +++ (the potency ratio is not less than 3)
[5]; vertebral artery blood flow, anesthetized dogs, intraarterial
  cerebral vasodilating activity, times stronger than that of papaverine: 4.5 times
[10]
  LD50: > 2000 mg/kg

## COc1ccc([C@@H]2Sc3ccccc3N(CCN(C)C)C(=O)[C@@H]2OC(=O)c2ccc([N+](=O)[O-])c(OC)c2)cc1 [(+)-cis-2-(4-methoxyphenyl)-3-(3-methoxy-4-nitrobenzoyloxy)-5-[2-(dimethylamino)ethyl]-2,3-dihydro-1,5-benzothiazepin-4(5H)-one methanesulfonate]
[2]
  IC50: 2.7 µM

## COc1ccc([C@@H]2Sc3ccccc3N(CCN(C)C)C(=O)[C@@H]2OC(=O)c2ccc([N+](=O)[O-])c(C)c2)cc1.Cl [(+)-cis-2-(4-methoxyphenyl)-3-(3-methyl-4-nitrobenzoyloxy)-5-[2-(dimethylamino)ethyl]-2,3-dihydro-1,5-benzothiazepin-4(5H)-one hydrochloride]
[3]
  Platelet aggregation-inhibiting activity (class): ++
[4]
  Coronary vasodilating activity (class): +++ (the increase is not less than 0.5 ml/minute at a dose of not more than 10 μg/heart)
[2]
  IC50: 2.5 µM
[5]
  Cerebral vasodilating activity (potency ratio to papaverin, class): +++ (the potency ratio is not less than 3)
